We go through seven molecules from patent US10253049B2, “Boronic acid derivatives” (MERCK PATENT GMBH, priority 2014, dated 2019).

Structures are written as SMILES.

The target of experiment [1] is LMP7 subunit of the immunoproteasome (Homo sapiens, UniProt P28062). As to conditions: Singh et al., Br. J. Hematology 152(2): 155-163; cited from earlier work.
Experiment [2] addresses LMP7 (purified human immunoproteasome) (Homo sapiens, UniProt P28062). Put plainly: Determination of LMP7 activity (fluorescence intensity assay, Suc-LLVY-AMC). Format: biochemical. The protocol:
Determination of LMP7 Activity
Measurement of LMP7 inhibition is performed in 384 well format based on fluorescence intensity assay.
(§1) Purified human immunoproteasome (0.25 nM) and serial diluted compounds in DMSO (range of concentrations from 30 μM to 15 pM) or controls are incubated for 20 minutes or 120 minutes (long incubation) at 25° C. in assay buffer containing 50 mM Tris pH 7.4, 0.03% SDS, 1 mM EDTA and 1% DMSO. The reaction is initiated by the addition of the fluorogenic peptide substrate, Suc-LLVY-AMC (Bachem I-1395), at a concentration of 40 μM. After 60 minutes of incubation at 37° C., fluorescence intensity is measured at λex=350 nm and λem=450 nm with a fluorescence reader (Perkin Elmer Envision reader or equivalent).
(§2) Unless indicated otherwise the results are obtained after incubation for 20 minutes.

The target of experiment [3] is Beta5 (purified human constitutive proteasome) (Homo sapiens, UniProt P28074). Put plainly: Determination of Beta5 activity (fluorescence intensity assay, Suc-LLVY-AMC). Format: biochemical. The protocol: Determination of Beta5 Activity
Measurement of Beta5 inhibition is performed in 384 well format based on fluorescence intensity assay.
as §1, with “constitutive proteasome (1.25” for “immunoproteasome (0.25”
as §2

Regarding `CC1=C(C(=O)N[C@H](C)C(=O)N[C@@H](Cc2c[nH]c3ccccc23)C(=O)N[C@@H](Cc2ccccc2)C(=O)[C@@]2(C)CO2)Cc2ccccc21` [PR-924], the “selectivity for the LMP7 subunit of the immunoproteasome” value in experiment [1] is 100 fold.

The term IC50 denotes the concentration at which inhibition is half-maximal. A high value points to a need for much substance. Take `CCN(CC(=O)N[C@@H](Cc1ccc(C)cc1C)B(O)O)S(=O)(=O)c1ccc(C)cc1` [Compound No. 30, [(1R)-2-(2,4-dimethylphenyl)-1-[[2-[ethyl(p-tolylsulfonyl)amino]acetyl]-amino]ethyl]boronic acid]: the concentration for half-maximal inhibition (IC50) in experiment [2] (incubation for 20 minutes) is less than 50 nM. In experiment [3] (incubation for 20 minutes), the IC50 was 500 to 5000 nM and the “Selectivity LMP7 vs Beta5” value is given as “+++++ (+++++: Selectivity ≥ 70)”.

Turning to `Cc1ccc(S(=O)(=O)N(CC(=O)N[C@@H](Cc2ccc(C)cc2C)B(O)O)C(C)C)cc1` [Compound No. 33, [(1R)-2-(2,4-dimethylphenyl)-1-[[2-[isopropyl(p-tolylsulfonyl)amino]-acetyl]amino]ethyl]boronic acid], in experiment [2] (incubation for 20 minutes), the IC50 is less than 50 nM. Besides, in experiment [3] (incubation for 20 minutes), the 50% inhibitory concentration (IC50) lay in the range of 500 to 5000 nM and the “Selectivity LMP7 vs Beta5” value is on record as “+++++ (+++++: Selectivity ≥ 70)”.

For the molecule `CCN(CC(=O)N[C@@H](Cc1coc2c(C)cccc12)B(O)O)S(=O)(=O)c1ccc(C)cc1` [Compound No. 43, [(1R)-1-[[2-[ethyl(p-tolylsulfonyl)amino]acetyl]amino]-2-(7-methylbenzofuran-3-yl)ethyl]boronic acid], the IC50 in experiment [2] (long incubation (120 min)) is 50 to 500 nM; in experiment [3] (long incubation (120 min)) it was more than 5000 nM. Moreover, the “Selectivity LMP7 vs Beta5” value in experiment [3] (long incubation (120 min)) was “+++++ (+++++: Selectivity ≥ 70)”.

`CN(C)C(=O)C(C(=O)N[C@@H](Cc1coc2ccccc12)B(O)O)c1ccccc1` (stereo partly drawn) [Compound No. 38, [(1R)-2-(benzofuran-3-yl)-1-[[3-(dimethylamino)-3-oxo-2-phenyl-propanoyl]amino]ethyl]boronic acid]: the values for the IC50 in experiment [2] (incubation for 20 minutes) and in experiment [3] (incubation for 20 minutes) were less than 50 nM and 500 to 5000 nM, respectively. Also, the “Selectivity LMP7 vs Beta5” value in experiment [3] (incubation for 20 minutes) was “+++++ (+++++: Selectivity ≥ 70)”.

`CCN(CCC(=O)N[C@@H](Cc1ccc(F)cc1)B(O)O)C(=O)c1ccc(C#N)cc1` [Compound No. 28, [(1R)-1-[3-[(4-cyanobenzoyl)-ethyl-amino]propanoylamino]-2-(4-fluorophenyl)ethyl]boronic acid] came in with an IC50 in experiment [2] (incubation for 20 minutes) of less than 50 nM. Further, in experiment [3] (incubation for 20 minutes), the IC50 lay in the range of 500 to 5000 nM and the “Selectivity LMP7 vs Beta5” value is “++++ (++++: 50 ≤ Selectivity < 70)”.

Consider `CCN(CC(=O)N[C@@H](Cc1ccc(C)cc1C)B(O)O)S(=O)(=O)c1ccccc1C` [Compound No. 29, [(1R)-2-(2,4-dimethylphenyl)-1-[[2-[ethyl(o-tolylsulfonyl)amino]acetyl]-amino]ethyl]boronic acid], for which the values for the IC50 in experiment [2] (incubation for 20 minutes) and in experiment [3] (incubation for 20 minutes) were less than 50 nM and 500 to 5000 nM, respectively. Further, the “Selectivity LMP7 vs Beta5” value in experiment [3] (incubation for 20 minutes) is recorded as “+++++ (+++++: Selectivity ≥ 70)”.
